Measurements reported in BindingDB's records for doi:10.7270/Q2639NCQ (The Scripps Research Institute Molecular Screening Center, 2013).

Molecular target: T1, Mitochondrial peptide methionine sulfoxide reductase (Bos taurus, UniProt P54149)
T1 sequence (P54149 whole entry): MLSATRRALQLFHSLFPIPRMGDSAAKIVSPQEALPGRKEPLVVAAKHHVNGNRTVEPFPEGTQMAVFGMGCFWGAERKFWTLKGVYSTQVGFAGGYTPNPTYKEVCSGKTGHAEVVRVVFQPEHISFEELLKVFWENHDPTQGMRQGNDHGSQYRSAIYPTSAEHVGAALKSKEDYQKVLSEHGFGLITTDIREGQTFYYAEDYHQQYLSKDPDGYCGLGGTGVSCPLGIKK

| Compound | IC50 [µM] |
| --- | --- |
| CCOP(=O)(CCP(=O)(OCC)OCC)OCC [MLS002702923] | 11 |
| Cn1c2c(c(=O)n(C)c1=O)C(C(F)(F)F)(C(F)(F)F)NC(C1CCCCC1)=N2 [SMR000219726] | > 155 |
| COc1ccc(-c2cc(=O)oc3c(C)c(OC(C)C(C)=O)ccc23)cc1 (stereo not given) [4-(4-methoxyphenyl)-8-methyl-7-(3-oxobutan-2-yloxy)-1-benzopyran-2-one] | > 155 |
| Cc1cc(C)c2nc(C(F)(F)F)nc(N3CC(C)OC(C)C3)c2c1 (stereo not given) [4-(2,6-dimethyl-4-morpholinyl)-6,8-dimethyl-2-(trifluoromethyl)quinazoline] | > 155 |
| O=C(O)c1cc(O)c2c(c1)C(=O)c1cccc(O)c1C2=O [RHEIN] | > 155 |
| COc1cccc(C2=Nc3nnnn3C(c3cccc(OC)c3OC)C2)c1 (stereo not given) | > 155 |
| O=C(N/N=C/c1ccc2c(c1)OCO2)c1ccc(Br)o1 [SMR000185016] | > 155 |
| Nc1nnc(CC(=O)N/N=C/c2ccc(-c3ccccc3)o2)s1 | > 155 |
| O=C1c2ccccc2C(=O)c2cc(S(=O)(=O)Nc3ccccc3)ccc21 [MLS000585519] | > 155 |
| Cc1nc2scc(-c3cccs3)c2c(=O)n1-n1cccc1 [MLS000113688] | > 155 |
| COc1ccc(NC(=O)COC(=O)C2CCCCC2)c([N+](=O)[O-])c1 [SMR000261453] | > 155 |
| CC(=O)COc1ccc2c(-c3ccccc3)cc(=O)oc2c1C [8-methyl-7-(2-oxidanylidenepropoxy)-4-phenyl-chromen-2-one] | > 155 |
| Cc1cc([N+](=O)[O-])ccc1Nc1nc2ccccc2n2cnnc12 [N-(2-methyl-4-nitrophenyl)[1,2,4]triazolo[4,3-a]quinoxalin-4-amine] | > 155 |
| COC(=O)c1ccc(S(=O)(=O)N2CCCN(Cc3cccc(Br)c3F)CC2)n1C [5-[[4-[(3-bromo-2-fluorophenyl)methyl]-1,4-diazepan-1-yl]sulfonyl]-1-methyl-2-pyrrolecarboxylic acid methyl ester] | > 155 |
| CSc1nc2sc3c(c2c2nnnn12)CCCC3 [MLS000071273] | > 155 |
| COc1ccc2[nH]c(C(=O)N/N=C/c3ccc(OC)c(O)c3)cc2c1 [MLS001214387] | > 155 |
| Cc1ccc(NC(=O)C2CCCO2)cc1[N+](=O)[O-] (stereo not given) [SMR000197718] | > 155 |
| COc1ccc(-c2cc(C(F)F)n3ncc(C(=O)n4ccnc4C)c3n2)cc1 [MLS000581677] | > 155 |
| O=Cc1c(-c2ccccc2)nc2ccccn12 [2-phenyl-3-imidazo[1,2-a]pyridinecarboxaldehyde] | > 155 |
| C#Cc1cccc(Nc2nc(NCc3ccccc3OC)nc3ccsc23)c1 [MLS003123009] | > 155 |
| COC(=O)CN(c1nc(C)c(Br)c(OC)n1)S(=O)(=O)c1ccccc1 [[Benzenesulfonyl-(5-bromo-4-methoxy-6-methyl-pyrimidin-2-yl)-amino]-acetic acid methyl ester] | > 155 |
| CC(Sc1ncc(C(F)(F)F)cc1Cl)C(=O)NC(N)=O (stereo not given) | > 155 |

| Compound | IC50 [µM] |
| --- | --- |
| Cc1ccccc1Nc1ncnc2n[nH]cc12 [SMR001556847] | > 155 |
| Cc1nn(Cc2ccc(Cl)cc2)c(=O)n1N(C)c1ncc(C(F)(F)F)cc1Cl [MLS000541367] | > 155 |
| CCSc1nc(N2CCOCC2)c2c(c1C#N)CCCC2 [3-(ethylthio)-1-(4-morpholinyl)-5,6,7,8-tetrahydroisoquinoline-4-carbonitrile] | > 155 |
| Cc1ccc(C)n1-n1c(C)nc2scc(-c3cccs3)c2c1=O [3-(2,5-dimethyl-1-pyrrolyl)-2-methyl-5-thiophen-2-yl-4-thieno[2,3-d]pyrimidinone] | > 155 |
| Cc1ccc(/C=C/C(=O)Nc2nccs2)o1 [SMR000261703] | > 155 |
| CCOc1cc(S(=O)(=O)NC2CC2)c(OCC)cc1-n1cnnn1 [SMR000123810] | > 155 |
| O=C(c1ccccc1)c1coc2c1C(=O)c1ccccc1C2=O [3-benzoylbenzo[f]benzofuran-4,9-dione] | > 155 |
| NC(=O)COc1ccc2oc(=O)cc(-c3cc4ccccc4o3)c2c1 [SMR000641652] | > 155 |
| COc1cccc(/C=N/n2c(CO)nc3ccccc32)c1OC [[1-[(E)-(2,3-dimethoxyphenyl)methylideneamino]-2-benzimidazolyl]methanol] | > 155 |
| c1ccc2c(c1)nc(-c1ccncc1)n1nnnc21 [SMR000060326] | > 155 |
| CC(N=Nc1ccc(C#N)cc1[N+](=O)[O-])C1C=CC(=O)C=C1 (stereo not given) [3-nitro-4-[2-[1-(4-oxidanylidenecyclohexa-2,5-dien-1-ylidene)ethyl]hydrazinyl]benzenecarbonitrile] | > 155 |
| O=c1oc2ccccc2c2c1cnc1ccccc12 [MLS000518195] | > 155 |
| N#CC1C(=N)Oc2c(O)cc3ccccc3c2C1c1ccsc1 (stereo not given) [3-amino-5-hydroxy-1-(3-thiophenyl)-1H-benzo[f][1]benzopyran-2-carbonitrile] | > 155 |
| COC(=O)COc1ccc2oc(=O)cc(-c3cc4ccccc4o3)c2c1 [MLS001167555] | > 155 |
| CCOC(=O)c1cc2c(ccc3ccccc32)oc1=O [3-oxo-2-benzo[f][1]benzopyrancarboxylic acid ethyl ester] | > 155 |
| O=C(O)c1cccc(N=NCc2sc(N3CCOCC3)nc2-c2ccccc2)c1 [3-[(2E)-2-[(2-morpholin-4-yl-4-phenyl-1,3-thiazol-5-yl)methylidene]hydrazinyl]benzoic acid] | > 155 |
| Cc1c(O)ccc2c(-c3ccccc3)cc(=O)oc12 [7-hydroxy-8-methyl-4-phenyl-1-benzopyran-2-one] | > 155 |
| COC(=O)N1[C@H](C)C=C[C@]1(Cc1ccccc1)C(=O)NCCCNc1ncc(C(F)(F)F)cc1Cl [(2R,5R)-5-[[3-[[3-chloro-5-(trifluoromethyl)-2-pyridinyl]amino]propylamino]-oxomethyl]-2-methyl-5-(phenylmethyl)-2H-pyrrole-1-carboxylic acid methyl ester] | > 155 |
| Cc1ccc(C)c(NC(=O)/C(C#N)=C/c2ccc[nH]2)c1 [SMR000678612] | > 155 |
| O=Cc1cn(-c2ccccc2)nc1-c1ccc2c(c1)OCCO2 [3-(2,3-Dihydro-benzo[1,4]dioxin-6-yl)-1-phenyl-1H-pyrazole-4-carbaldehyde] | > 155 |
| CC(=O)COc1ccc2oc(=O)cc(-c3cc4ccccc4o3)c2c1 [SMR000641655] | > 155 |
| CC(Nc1cc(N2CCN(S(C)(=O)=O)CC2)ccc1[N+](=O)[O-])c1ccccc1 (stereo not given) [5-[4-(methylsulfonyl)-1-piperazinyl]-2-nitro-N-(1-phenylethyl)aniline] | > 155 |

| Compound | IC50 [µM] |
| --- | --- |
| CC(Nc1cc(N2CCN(S(=O)(=O)N(C)C)CC2)ccc1[N+](=O)[O-])c1ccccc1 (stereo not given) [MLS000676463] | > 155 |
| O=C1C(=O)N(CCCn2ccnc2)C(c2cccc(Br)c2)C1C(=O)c1ccco1 (stereo not given) [2-(3-bromophenyl)-3-[2-furanyl(oxo)methyl]-4-hydroxy-1-[3-(1-imidazolyl)propyl]-2H-pyrrol-5-one] | > 155 |
| Cc1ccc(Nc2[nH]nc(C)c2[N+](=O)[O-])cc1C [(3,4-Dimethyl-phenyl)-(5-methyl-4-nitro-2H-pyrazol-3-yl)-amine] | > 155 |
| Cc1ccc(-c2csc3nc(C)n(-n4c(C)ccc4C)c(=O)c23)o1 [SMR000061692] | > 155 |
| CSc1nc2nc3c(c-2c2nn[nH]n12)CCCC3 [MLS000071223] | > 155 |
| CCOC(=O)N/N=C1/c2ccccc2-c2nc3nonc3nc21 [SMR000305141] | > 155 |
| O=C(NC=NOCc1ccc(Cl)cc1Cl)NOCc1ncc(C(F)(F)F)cc1Cl [1-[[3-chloro-5-(trifluoromethyl)-2-pyridinyl]methoxy]-3-[[(2,4-dichlorophenyl)methoxyamino]methylidene]urea] | > 155 |
| Cc1cc(/C=C(/C#N)c2cccc(F)c2)c(C)n1-c1cccnc1 [3-[2,5-dimethyl-1-(3-pyridinyl)-1H-pyrrol-3-yl]-2-(3-fluorophenyl)acrylonitrile] | > 155 |
| CCc1noc(C)c1C(=O)Nc1nc(-c2ccc(F)cc2)c(C)s1 [3-ethyl-N-[4-(4-fluorophenyl)-5-methyl-1,3-thiazol-2-yl]-5-methyl-1,2-oxazole-4-carboxamide] | > 155 |
| CN(C)CCCN1C(=O)c2cccc3c([N+](=O)[O-])ccc(c23)C1=O [2-[3-(dimethylamino)propyl]-6-nitro-1H-benzo[de]isoquinoline-1,3(2H)-dione] | > 155 |
| O=C1N=C(N2C=CC(c3ccncc3)C=C2)C(=CN=NC(=O)c2ccccc2)S1 | > 155 |
| O=[N+]([O-])c1cc([N+](=O)[O-])c(N2CCOCC2)cc1NCc1ccccc1 [5-morpholin-4-yl-2,4-dinitro-N-(phenylmethyl)aniline] | > 155 |
| O=C(c1ccco1)c1cc2c(ccc3ccccc32)oc1=O [2-(furan-2-ylcarbonyl)benzo[f]chromen-3-one] | > 155 |
| NC(=O)c1ccc(Nc2ccc3c(c2)CCC3)c([N+](=O)[O-])c1 [4-(2,3-dihydro-1H-inden-5-ylamino)-3-nitro-benzamide] | > 155 |
| O=C(COC(=O)C1=NN(c2ccccc2)C(=O)CC1)Nc1ccc([N+](=O)[O-])cc1C(F)(F)F [SMR001244149] | > 155 |
| CC(N=O)c1cc(C(C)(C)C)c(O)c(C(C)(C)C)c1 (stereo not given) | > 155 |
| O=C1C(Cl)=C(Nc2ccc3cn[nH]c3c2)C(=O)c2ccccc21 | > 155 |
| CC(C)(C)c1cc([N+](=O)[O-])cc(C(C)(C)C)c1O [MLS000755910] | > 155 |
| COc1cccc2c1Oc1cc([N+](=O)[O-])cc(N(C)C(C)=O)c1C=C2 [SMR000559347] | > 155 |
| Cc1ccnc(N2C(=O)c3cccc4c([N+](=O)[O-])ccc(c34)C2=O)c1 [2-(4-Methyl-pyridin-2-yl)-6-nitro-benzo[de]isoquinoline-1,3-dione] | > 155 |
| CC1(C)C2CCC(CN=C(N)CSS(=O)(=O)O)C1C2 (stereo not given) [SMR001821892] | > 155 |
